US8158579B2, “Fusion protein of an exendin to modified transferrin” (BioRexis Pharmaceutical Corporation, priority 2006, dated 2012)
Where “and” joins values, the source holds several entries; their conditions need not be identical. Equal values may be shown once. Read-outs that look alike come from different tables or passages of the source.

Tests used:
Sprague Dawley rats = assay: rat body weight, daily subcutaneous injections; assay type: in vivo
From the text: The rats were weighed everyday (prior to dosing on dosing days). Animals had full access to food and water at all times.
By day five, the animals treated with 100 nmole/kg doses lost an average of 75 grams (17%) body weight compared to controls, and the weight loss is related to a drop in food and water intake. Because of the dramatic and acute weight loss observed, daily administration of the drug was stopped at day five. After the 5 day administration period, all animals gained weight at a similar rate.

rat GLP-1 receptor = biological target: T1, rat GLP-1 receptor (Rattus norvegicus, UniProt P32301); assay: cAMP potency assay in CHO cells transfected with the rat GLP-1 receptor (CHO-GLP-1R); assay type: cell-based
T1 construct: expressed in transfected cells; host or cells: CHO (CHO-GLP-1R)
T1 sequence (P32301 22-463): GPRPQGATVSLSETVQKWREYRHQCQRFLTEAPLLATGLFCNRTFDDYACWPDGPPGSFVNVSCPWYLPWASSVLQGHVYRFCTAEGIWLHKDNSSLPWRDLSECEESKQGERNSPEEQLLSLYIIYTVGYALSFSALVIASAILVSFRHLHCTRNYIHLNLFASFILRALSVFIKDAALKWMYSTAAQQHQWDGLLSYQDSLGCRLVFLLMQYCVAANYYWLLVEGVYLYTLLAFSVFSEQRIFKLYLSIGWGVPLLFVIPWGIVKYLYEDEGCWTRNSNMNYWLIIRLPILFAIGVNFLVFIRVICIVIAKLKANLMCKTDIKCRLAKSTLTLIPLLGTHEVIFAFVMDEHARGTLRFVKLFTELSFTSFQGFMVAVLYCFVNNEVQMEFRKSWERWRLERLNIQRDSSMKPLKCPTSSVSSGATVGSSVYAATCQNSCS
Procedure: 96-well tissue culture plates were seeded with CHO-GLP-1R cells and cultured overnight. The following day, the cells were rinsed with Krebs-Ringer buffer (KRB) and incubated in KRB containing the phosphodiesterase inhibitor 3-isobutyl-1-methylxanthine (IBMX, 2 mM) to inhibit intracellular enzymes that process cAMP. Serial dilutions of test compounds and controls were prepared in KRB/IBMX and triplicate wells of cells were inoculated with samples and controls. After incubation, individual sample lysates were then assayed to measure the increase in intracellular cAMP levels using a competition-based fluorescent immunoassay (CatchPoint® cAMP Fluorescent Assay Kit, Molecular Devices Corp., Sunnyvale, Calif.).

mice = assay: body weight in mice after a single dose; assay type: in vivo; conditions: for average drop in body weight: twenty-four hours after administration
From the text: Such a dose can also be administered once per two weeks or once per month.

[1] = cynomolgus monkey, in vivo, 1 mg/kg
[2] = effect of aerosolization on integrity and activity of the fusion protein; assay type: physicochemical
From the text: (§1) Aerosols were generated with an Aerotech II compressed air jet nebulizer (CIS-US Inc., Bedford, Mass.) and directed through a 1.58 cm diameter stainless steel aerosol delivery line into a 24-port flow past rodent exposure system (IN-TOX, ABQ, NM). The exhaust flow rate out of the chamber was ˜11.5 L/min. The nebulizer pressure was maintained at ˜30 psi.

diabetic mice (db/db) = assay: blood glucose in db/db mice after inhalation of aerosolized fusion protein; assay type: in vivo; conditions: inhalation exposure equivalent to 0.3, 1 and 3 mg/kg
From the text: as §1

Diabetic (db/db) mice = assay: blood glucose in diabetic (db/db) mice after subcutaneous injection; assay type: in vivo
[3] = mouse, in vivo, inhaled or intranasal
Procedure: The inhalation time in the chamber was chosen so that the animals would receive an exposure equivalent to the 0.3, 1 and 3 mg/kg dose administered subcutaneously. As a control, these doses were administered subcutaneously (SC) to compare in vivo activity to the inhaled route of administration.

human GLP-1 receptor = biological target: T2, human GLP-1 receptor (Homo sapiens, UniProt P43220); assay: cell-based cAMP assay in CHO cells expressing the human GLP-1 receptor (FIG. 4)
T2 construct: expressed in transfected cells; host or cells: CHO
T2 sequence (P43220 24-463): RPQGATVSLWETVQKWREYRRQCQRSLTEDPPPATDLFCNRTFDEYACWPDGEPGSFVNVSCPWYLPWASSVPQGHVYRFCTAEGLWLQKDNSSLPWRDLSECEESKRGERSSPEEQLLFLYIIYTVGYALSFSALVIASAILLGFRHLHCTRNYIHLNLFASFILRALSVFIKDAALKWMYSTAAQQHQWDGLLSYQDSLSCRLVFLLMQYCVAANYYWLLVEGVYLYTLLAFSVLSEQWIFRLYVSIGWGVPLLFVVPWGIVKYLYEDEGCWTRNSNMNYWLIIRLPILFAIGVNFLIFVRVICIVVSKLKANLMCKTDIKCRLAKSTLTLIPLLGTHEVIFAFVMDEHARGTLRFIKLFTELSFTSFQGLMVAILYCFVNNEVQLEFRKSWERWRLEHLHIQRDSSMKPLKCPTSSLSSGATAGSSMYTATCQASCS

[4] = biological target: T3, matrix metalloprotease I (MMP-1, collagenase) (Homo sapiens, UniProt P03956); assay type: in vitro ADME
T3 sequence (P03956 100-469): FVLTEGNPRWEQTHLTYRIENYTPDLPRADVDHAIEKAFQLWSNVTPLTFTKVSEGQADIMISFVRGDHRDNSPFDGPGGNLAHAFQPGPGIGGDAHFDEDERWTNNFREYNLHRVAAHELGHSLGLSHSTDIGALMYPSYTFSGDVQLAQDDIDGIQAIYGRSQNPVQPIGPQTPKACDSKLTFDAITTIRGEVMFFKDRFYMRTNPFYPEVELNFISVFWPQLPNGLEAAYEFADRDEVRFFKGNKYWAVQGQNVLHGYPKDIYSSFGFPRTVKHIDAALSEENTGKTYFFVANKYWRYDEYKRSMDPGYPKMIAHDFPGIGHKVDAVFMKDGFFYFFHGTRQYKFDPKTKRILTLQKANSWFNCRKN
From the text: This difference in degradation occurs despite the close similarity in amino acid sequence in the active portion of the molecules.

Question: What does the source list for “exendin-4(1-39) (PEAPTD)2 (SEQ ID NO: 5) mTf fusion protein: exendin-4(1-39) (SEQ ID NO: 4) linked via linker (PEAPTD)2 to modified transferrin mTf (SEQ ID NO: 17); sequence SEQ ID NO: 23”?
Answer: body weight loss (Sprague Dawley rats; 100 nmole/kg daily administration, rats): 17% and 16%; average body weight loss compared to controls (Sprague Dawley rats; 100 nmole/kg daily, by day five): 75 grams; body weight change (Sprague Dawley rats; 10 and 100 nmole/kg doses): lost weight after the first injection; body weight versus control animals after end of dosing (Sprague Dawley rats; 20 days following the last administration): still weighed less than the control animals; EC50 (rat GLP-1 receptor; cAMP accumulation in CHO-GLP-1R cells): 0.16 nM; potency relative to the GLP-1(7-37,A8G,K34A) (PEAPTD)2 mTf fusion protein (rat GLP-1 receptor; in vitro activation of the GLP-1 receptor): four-eight fold more potent; dose correlated with a reduction in animal body weight (mice; mice and rats): ≥ 10 nmol/kg; average drop in body weight (mice; single dose 10 nmole/kg): 6%; average drop in body weight (mice; single dose 100 nmole/kg): 14%; Vz ([1]; iv): 0.0659 ± 0.031 L/kg; λ z ([1]; iv): 0.0313 ± 0.0137 h − 1; F ([1]; sc): 49.0%; λ z ([1]; sc): 0.0252 ± 0.0084 h − 1; effect of aerosolization on structure ([2]; 10 mg/mL in 10 mM histidine pH 7.4, 100 mM NaCl, nebulized, SDS-PAGE and SEC-HPLC): no detectable adverse effect on the structure; biological activity of material recovered after aerosolization ([2]; condensed liquid from the aerosol): biologically active; blood glucose levels after inhalation (diabetic mice (db/db)): significant drop; time the almost normalized glucose level persisted (Diabetic (db/db) mice; all treatment groups): 24 h; dose that significantly reduced blood glucose (Diabetic (db/db) mice; by 3 hours after subcutaneous injection): ≤ 1.3 nmol/kg; effect on blood glucose compared with equivalent doses of the GLP-1(7-37,A8G,K34A) (PEAPTD)2 mTf fusion protein (Diabetic (db/db) mice; equivalent doses): significantly greater and of a longer duration; time at which glucose concentrations returned to pretreatment levels (Diabetic (db/db) mice; post-treatment, depending on the dose): 48 to 72 h; reduction in blood glucose (Diabetic (db/db) mice; reduction seen in db/db mice): approximately 70%; bioavailability [3]: approximately 10%; EC50 (human GLP-1 receptor; cell-based cAMP assay, FIG. 4): 0.0313 nM; potency relative to exendin-4 (fold less potent) (human GLP-1 receptor; in vitro, CHO cells expressing the human GLP-1 receptor): approximately 5 fold; resistance to inactivation by MMP-1 [4]: resistant to inactivation by MMP-1
